≈ marks a conversion by molar mass, not a printed value. Read-outs that look alike come from different tables or passages of the source.
Key:
[1] = system: G. duodenalis trophozoites; assay: Giardia recovery assay; type: cell-based, Giardia duodenalis; conditions: 5 h at 5x the IC50, counts at 24 and 48 h post exposure
Method: G. duodenalis trophozoites were harvested on ice as outlined above and 5 × 10^5 cells/mL were added to 1.5 mL centrifuge tubes. […] After exposure cells were collected by placing tubes on ice for 40 min followed by centrifugation at 900×g for 5 min. The supernatant was removed and cells were resuspended in 8 mL of fresh media (in a 9 mL culture tube). The number of trophozoites was counted using a haemocytometer and cells were incubated for 48 h with cell numbers being determined at 24 and 48 h.
Fig. 7 Recovery assay of Giardia duodenalis exposed to robenidine and metronidazole. Giardia trophozoites were exposed to robenidine or metronidazole for 5 h at 5x the IC50. Key: closed circle – growth control, triangle – metronidazole, square – robenidine, open circle – NCL 062, diamond – NCL 099. Cell numbers were determined at 24 and 48 h post exposure. Error ± SD.

[2] = system: Giardia duodenalis BAH2c2 strain, assemblage A; assay: Resazurin reduction assay, assemblage A isolate; type: cell-based; conditions: BAH2c2, 24 h; for IC50: resazurin metabolic assay, read-out: IC50, Assemblage A
Method: (§1) G. duodenalis (BAH2c2 and BAH12 strain) was cultivated according to the method of Clark and Diamond in Keister's modified TYI-S-33 medium, supplemented with heat inactivated foetal bovine serum (Hyclone™, Thermo Fisher Scientific, Scoresby, Victoria, Australia) at 37 °C in plastic 9 mL screw-capped test tubes (nunc, Thermo Fisher Scientific, Scoresby, Victoria, Australia). Subcultures were performed once a confluent monolayer was observed, approximately 2–3 times per week ([Clark and Diamond, 2002]).
(§2) The in-vitro compound efficacy was determined using a resazurin reduction assay as previously described ([Benere et al., 2007]). The media of confluent cultures was replaced with fresh media and the cultures were placed on ice for 40 min to detach trophozoites. Trophozoites were enumerated using a haemocytometer and 50 000 trophozoites were added to each test well of a 96 well plate. Doubling or tripling dilutions of the test compounds were added to wells beginning at 25 or 50 μM compound concentration (previously prepared in DMSO). Metronidazole and DMSO (vehicle only) were used as controls. Plates were incubated under anaerobic conditions, using anaerobic gas generating sachets, (AnaeroGen, Thermo Fisher Scientific, Scoresby, Victoria, Australia) for 24 h at 37 °C. After incubation the media was removed and replaced with an equal volume of warm PBS. Resazurin (Alamarblue, Thermo Fisher Scientific, Scoresby, Victoria, Australia) was then added at 10% of the total volume of the wells. Plates were further incubated (1.5 h) for colour development and absorbance read at 570 nm and 630 nm. The percentage resazurin reduction was then calculated using the following formula:((εoxi630 x A570) – (εoxi570 x A630))/((εred570 x C630)-([…])) x 100Where: εoxi630 = 34798, εoxi570 = 80586, A570 = absorbance at 570 nm, A630 = absorbance at 630 nm, εred570 = 155677, εred630 = 5494, C630 = absorbance of negative control well at 630 nm and C570 = absorbance of negative control well at 570 nm.
(§3) For the resazurin reduction assay the mean and standard error of the mean were determined with each assay completed in triplicate. The IC50 was calculated using the log (inhibitor) vs. normalised response – variable slope function in Graphpad Prism. For the adherence assay mean and standard error of the mean were calculated and data analysed using an unpaired t-test, relative to untreated control.
(§4) The IC50 of each compound was determined using a resazurin reduction assay, which measures the metabolic activity of cells, using the log (inhibitor) vs. normalised response – variable slope function in Graphpad Prism. The compounds were tested against an assemblage A (BAH2c2, 24 h) and an assemblage B (BAH12, 24 h) isolate (Table 1). […] The effect of the compounds on the proliferation of Giardia trophozoites (BAH2c2) was also determined.
Absorbance was measured (630 and 570 nm), percent reduction of resazurin calculated and data presented as a percentage of the growth control. Treatment groups are: square - metronidazole; triangle –NCL 099; diamond - robenidine; and circle - NCL 062. Error ± SEM, n = 3. Data represents a typical experiment. Note the break in the x-axis indicates a change in the scale of drug concentration.

[3] = In vitro cytotoxicity, murine macrophage cells; conditions: mouse
[4] = system: Giardia duodenalis BAH12, assemblage B; assay: Resazurin reduction assay, assemblage B isolate; type: cell-based; conditions: BAH12, 24 h
Method: as §1, §2, §3, §4

SMILES: N=C(N/N=C/c1ccc(Cl)cc1)N/N=C/c1ccc(Cl)cc1 [Robenidine, robenidine]
- Recovery of trophozoites after short-term exposure [1]: unable to recover
- IC50 [2]: 2900 ± 2900 nM
- MLC (minimum lethal concentration), Assemblage A ([2]; concentration at which no metabolism of resazurin was observed): 2.8 to 8.3 µM
- IC50 ([2]; Giardia duodenalis, 24 h): 2000 nM
- GI50 [3]: 17.1 µM
- MLC, Assemblage B [4]: 16.6 µM (≈ 5.55 µg/mL)
- IC50 ([4]; Giardia duodenalis, resazurin metabolic assay): 4.7 ± 0.6 µM
